Assay results reported in patent US20220257713A1, “COMPOUND AND COMPOSITIONS FOR MULTITARGET TREATMENT OF TAU PROTEIN-RELATED DISORDERS” (FONDAZIONE IRCCS ISTITUTO NEUROLOGICO CARLO BESTA, priority 2019, published 2022).
Residues, ends and D or L forms follow the SMILES beside them.

Columns and labels:
APPSwe/PS1DE9 = settings: mouse, in vivo, 50 mg/kg
Method: FIG. 4. Mouse brain distribution of Aβ1-6A2V (D) peptide 2 hours after the last intranasal administration: A) Control and B) Treated Mice. FIG. 5. Effect of Aβ1-6A2V(D) on Aβ oligomer formation in the brain: biochemical assessment. APPSwe/PS1DE9 were treated with Aβ1-6A2V(D) at 50 mg/kg for five months. Control group was treated intranasally with PBS. A: Levels of Aβ aggregates in soluble and insoluble brain fractions after 2.5 months of treatment. B: Levels of Aβ aggregates in soluble and insoluble brain fractions after five months of treatment. * p<0.01; *** p<0.001. FIG. 6. Effect of Aβ1-6A2V(D) on Aβ deposits in mouse brain: neuropathological assessment. A: APPSwe/PS1DE9 were treated with Aβ1-6A2V(D) daily for five months at 50 mg/kg. Control group (CTRL) was treated intranasally with PBS. Amyloid burden measured by plaque count. ** p<0.01; *** p<0,001. B: Immunohistochemistry with the 4G8 anti-Aβ antibody. FIG. 7. Effect of Aβ1-6A2V(D) on synaptopathy. Subcellular fractionation of hippocampal homogenates from mice treated with Aβ1-6A2V(D) (right columns) or PBS (left columns). Western blot analysis with antibodies against synaptic receptors (NMDA-2A, GluN2B, GluA1 and GluA2) and scaffold protein (PSD95). The treatment with Aβ1-6A2V(D) preserved synaptic integrity. […]

[1] = mouse, in vivo, 16.7 mg/kg
Method: FIG. 3. […] Mice were sacrificed 4 (A), 24 (B) and 48 (C) hours after the last administration.
To this end, preliminarily wild-type mice were treated once a week for 4 weeks at a dose of 16.7 mg/kg. Animals were sacrificed 4, 24, 48 hours from the last intranasal delivery.

CC(C)[C@@H](NC(=O)[C@H](N)CC(=O)O)C(=O)N[C@H](CCC(=O)O)C(=O)N[C@H](Cc1ccccc1)C(=O)N[C@H](CCCNC(=N)N)C(=O)N[C@H](Cc1c[nH]cn1)C(=O)O [Aβ1-6A2V(D)] (HELM PEPTIDE1{[dD].[dV].[dE].[dF].[dR].[dH]}$$$$V2.0; N-terminus and C-terminus assumed)
Diffusion of the peptide in brain tissue (APPSwe/PS1DE9): consistent diffusion of the peptide in brain tissue | Diffusion of the peptide in brain tissue [1]: consistent diffusion of the peptide in brain tissue | Presence of the peptide in cerebral cortex 48 hours after last treatment [1]: can be still observed in the cerebral cortex
